For assay [1], the target named is T1, Interstitial collagenase (Homo sapiens, UniProt P03956).
T1 sequence (P03956 whole entry): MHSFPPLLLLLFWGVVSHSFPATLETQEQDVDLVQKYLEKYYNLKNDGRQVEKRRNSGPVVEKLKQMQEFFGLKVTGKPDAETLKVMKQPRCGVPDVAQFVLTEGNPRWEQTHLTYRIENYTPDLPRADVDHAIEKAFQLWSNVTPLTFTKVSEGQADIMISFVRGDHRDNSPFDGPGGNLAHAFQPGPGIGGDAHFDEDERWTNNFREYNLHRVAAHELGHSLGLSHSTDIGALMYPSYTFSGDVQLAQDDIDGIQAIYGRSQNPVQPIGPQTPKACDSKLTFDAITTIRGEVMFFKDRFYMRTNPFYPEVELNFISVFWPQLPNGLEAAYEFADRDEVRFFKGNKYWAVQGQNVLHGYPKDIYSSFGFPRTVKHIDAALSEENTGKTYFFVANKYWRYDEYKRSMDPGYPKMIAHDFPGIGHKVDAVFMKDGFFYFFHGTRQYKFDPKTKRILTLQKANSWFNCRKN
The assay is described as follows: Inhibition of human fibroblast collagenase, matrix metalloprotease-1.

Assay [2] concerns the target T2, Matrilysin (Homo sapiens, UniProt P09237).
T2 sequence (P09237 whole entry): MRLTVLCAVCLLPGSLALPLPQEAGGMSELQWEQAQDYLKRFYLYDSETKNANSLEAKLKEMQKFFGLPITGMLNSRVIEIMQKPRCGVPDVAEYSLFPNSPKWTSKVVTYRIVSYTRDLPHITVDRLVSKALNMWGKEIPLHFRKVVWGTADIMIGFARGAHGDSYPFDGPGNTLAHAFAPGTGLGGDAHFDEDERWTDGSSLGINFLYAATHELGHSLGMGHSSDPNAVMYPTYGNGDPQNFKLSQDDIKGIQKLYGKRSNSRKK
The assay is described as follows: Inhibition of matrilysin, matrix metalloprotease-7.

The target in assay [3] is Stromelysin-1 (Homo sapiens, UniProt P08254). The assay is described as follows: Inhibition of human fibroblast stromelysin, matrix metalloprotease-3.
Sequence of Stromelysin-1 (P08254 whole entry): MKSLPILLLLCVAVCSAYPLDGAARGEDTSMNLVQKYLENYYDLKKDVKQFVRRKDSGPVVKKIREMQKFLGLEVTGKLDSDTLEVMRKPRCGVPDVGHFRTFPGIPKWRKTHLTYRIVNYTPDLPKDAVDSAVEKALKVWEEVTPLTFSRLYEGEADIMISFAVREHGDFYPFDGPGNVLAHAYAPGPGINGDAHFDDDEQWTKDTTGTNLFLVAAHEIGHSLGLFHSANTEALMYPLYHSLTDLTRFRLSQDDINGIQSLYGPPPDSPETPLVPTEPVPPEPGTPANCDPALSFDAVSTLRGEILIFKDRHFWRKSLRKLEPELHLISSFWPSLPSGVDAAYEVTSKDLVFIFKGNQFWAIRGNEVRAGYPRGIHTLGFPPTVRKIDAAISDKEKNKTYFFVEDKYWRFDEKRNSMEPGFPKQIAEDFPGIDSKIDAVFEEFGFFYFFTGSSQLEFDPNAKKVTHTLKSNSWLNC

Turning to `COc1ccc2nc([C@H](CC(C)C)NC(=O)[C@@H](CC(=O)NO)CC(C)C)[nH]c2c1`, the figures for the IC50 in assay [1], in assay [2] and in assay [3] were 6 nM, 10 nM and 30 nM, respectively.
On to `COC(=O)c1ccc(NC(=O)[C@H](CC(C)C)NC(=O)[C@@H](CC(=O)NO)CC(C)C)cc1`, for which the IC50 was determined as 6.9 nM in assay [1], 0.23 nM in assay [2] and 0.8 nM in assay [3].
The like results for `CC(C)C[C@H](CC(=O)NO)C(=O)N[C@@H](CC(C)C)c1nc2cc(C(F)(F)F)ccc2[nH]1` were, in that order, 7 nM, 10 nM and 20 nM.
Turning to `COC(=O)c1[nH]c([C@H](CC(C)C)NC(=O)[C@@H](CC(=O)NO)CC(C)C)nc1-c1ccccc1`, the IC50 is 3500 nM in assay [1], 70 nM in assay [2] and 320 nM in assay [3].
Taken in the same sequence, the figures for `CC(C)C[C@H](CC(=O)NO)C(=O)N[C@@H](CC(C)C)c1nc2ccccc2[nH]1` were 29 nM, 2 nM and 8 nM.
The like results for `CC(C)C[C@H](CC(=O)NO)C(=O)N[C@@H](CC(C)C)c1ncc[nH]1` were, in that order, 9 nM, 50 nM and 320 nM.
The like results for `CC(C)C[C@H](CC(=O)NO)C(=O)N[C@@H](CC(C)C)c1nc(-c2ccccc2)c[nH]1` were, in that order, 170 nM, 1 nM and 112 nM.
Turning to `COC(=O)c1ccc2nc([C@H](CC(C)C)NC(=O)[C@@H](CC(=O)NO)CC(C)C)[nH]c2c1`, the IC50 was 3 nM in assay [1], 1 nM in assay [2] and 5 nM in assay [3].
The like results for `CC(C)C[C@H](CC(=O)NO)C(=O)N[C@@H](Cc1c[nH]c2ccccc12)c1nc2ccccc2[nH]1` were, in that order, 22 nM, 10 nM and 29 nM.
In the case of `CC(C)C[C@H](NC(=O)[C@@H](CC(=O)NO)C1CCCCC1)c1nc(-c2ccccc2)c[nH]1`, the figures for the IC50 in assay [1], in assay [2] and in assay [3] were 480 nM, 3.1 nM and 5900 nM, respectively.
The like results for `CC(C)C[C@H](CC(=O)NO)C(=O)N[C@@H](CC(C)C)c1nc2cc(Cl)c(Cl)cc2[nH]1` were, in that order, 40 nM, 33 nM and 68 nM.
Consider `CC(C)C[C@H](CC(=O)NO)C(=O)N[C@@H](Cc1c[nH]c2ccccc12)c1ncc[nH]1`, for which the IC50 in assay [1] is 18 nM; in assay [2] it was 18 nM; in assay [3], 280 nM.

Source of the values: ChEMBL document CHEMBL1149961, “Design, synthesis, activity, and structure of a novel class of matrix metalloproteinase inhibitors containing a heterocyclic P2-P3 amide bond isostere” (Bioorg Med Chem Lett, 1996).
